Reference: ChEMBL document CHEMBL1136864, “A one step/one pot synthesis of N,N-bis(phosphonomethyl)amino acids and their effects on adipogenic and osteogenic differentiation of human mesenchymal stem cells” (Bioorg Med Chem, 2009)
Active and inactive are the calls of the source. The calls are words filed in the database; no cut-off is given here.

What was measured:
MADS [1] = assay: Effect on adipogenic differentiation of human MADS cells into adipocytes at 100 nM after 14 days by Oil red O staining; assay type: functional, cell-based
MADS [2] = assay: Effect on adipogenic differentiation of human MADS cells into adipocytes at 300 nM after 14 days by Oil red O staining; assay type: functional, cell-based
[3] = Toxicity in human MADS cells assessed as inhibition of osteoblast formation at 100 nM after 14 days by Von Kossa staining; assay type: cell-based; conditions: 336 h, 0.1 µM
[4] = Toxicity in human MADS cells assessed as inhibition of osteoblast formation at 300 nM after 14 days by Von Kossa staining; assay type: cell-based; conditions: 336 h, 0.3 µM
[5] = Cytotoxicity against human MADS cells at 100 nM; assay type: cell-based; conditions: 0.1 µM
[6] = Cytotoxicity against human MADS cells at 300 nM; assay type: cell-based; conditions: 0.3 µM
MADS [7] = assay: Effect on adipogenesis in human MADS cells assessed as GPDH activity at 100 nM; assay type: functional, cell-based
MADS [8] = assay: Effect on adipogenesis in human MADS cells assessed as GPDH activity at 300 nM; assay type: functional, cell-based
[9] = Inhibition of osteogenesis in human MADS cells assessed as ALP activity at 100 nM; assay type: cell-based; conditions: 0.1 µM
[10] = Inhibition of osteogenesis in human MADS cells assessed as ALP activity at 300 nM; assay type: cell-based; conditions: 0.3 µM
[11] = Cytotoxicity against human MADS cells at 0.1 to 100 nM; assay type: cell-based; conditions: 0.1 µM
MADS [12] = assay: Induction of osteogenesis in human MADS cells assessed as ALP activity at 0.1 to 100 nM; assay type: functional, cell-based

| Activity [9] | Activity [10] | SMILES | Activity (MADS [1]) | Activity (MADS [2]) | Activity [3] | Activity [4] | Activity [5] | Activity [6] | Activity (MADS [7]) | Activity (MADS [8]) | Activity [11] | Activity (MADS [12]) |
| --- | --- | --- | --- | --- | --- | --- | --- | --- | --- | --- | --- | --- |
| Active | Active | O=C(O)C1(N(CP(=O)(O)O)CP(=O)(O)O)CCCC1 | inactive | inactive | Toxic | Toxic | Non-toxic | Non-toxic | inactive | inactive | Non-toxic | Active |
|  |  | NCCCC(O)(P(=O)(O)O)P(=O)(O)O |  |  |  |  |  |  |  | inactive |  | Active |
| Active | Active | O=C(O)C1(N(CP(=O)(O)O)CP(=O)(O)O)CCCCC1 | inactive | inactive | Toxic | Toxic | Non-toxic | Non-toxic | inactive | inactive | Non-toxic | Active |
| Active | Active | CC(C)(C(=O)O)N(CP(=O)(O)O)CP(=O)(O)O | inactive | inactive | Toxic | Toxic | Non-toxic | Non-toxic | inactive | inactive | Non-toxic | Active |
